In PubChem BioAssay (NCI):
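GI50 = concentration required for 50% inhibition of growth. TGI marks complete inhibition of growth.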

Key:
Assay in all cases: NCI anticancer screen, dose series, 384-well format
OVCAR-5 ovarian = tested on: OVCAR-5 ovarian
NCI-H522 lung = tested on: NCI-H522 lung
SF-539 CNS = tested on: SF-539 CNS
OVCAR-8 ovarian = tested on: OVCAR-8 ovarian
NCI/ADR-RES ovarian = tested on: NCI/ADR-RES ovarian
ACHN renal = tested on: ACHN renal
SF-268 CNS = tested on: SF-268 CNS
A549 NSCLC = tested on: A549 NSCLC
HOP-62 NSCLC = tested on: HOP-62 NSCLC
MCF7 breast = tested on: MCF7 breast
HCT-15 colon = tested on: HCT-15 colon
EKVX NSCLC = tested on: EKVX NSCLC
UACC-257 melanoma = tested on: UACC-257 melanoma
NCI-H460 NSCLC = tested on: NCI-H460 NSCLC
SF-295 CNS = tested on: SF-295 CNS
TK-10 renal = tested on: TK-10 renal
KM12 colon = tested on: KM12 colon
HL-60(TB) leukemia = tested on: HL-60(TB) leukemia
M14 melanoma = tested on: M14 melanoma
DU-145 prostate = tested on: DU-145 prostate
SN12C renal = tested on: SN12C renal
SK-MEL-28 melanoma = tested on: SK-MEL-28 melanoma
MDA-MB-468 breast = tested on: MDA-MB-468 breast
SK-OV-3 ovarian = tested on: SK-OV-3 ovarian
MALME-3M melanoma = tested on: MALME-3M melanoma
OVCAR-3 ovarian = tested on: OVCAR-3 ovarian
NCI-H322M lung = tested on: NCI-H322M lung
RPMI-8226 leukemia = tested on: RPMI-8226 leukemia
786-0 renal = tested on: 786-0 renal
HOP-92 NSCLC = tested on: HOP-92 NSCLC
SR leukemia = tested on: SR leukemia
SK-MEL-5 melanoma = tested on: SK-MEL-5 melanoma
MDA-MB-435 melanoma = tested on: MDA-MB-435 melanoma
UO-31 renal = tested on: UO-31 renal
T-47D breast = tested on: T-47D breast
HS 578T breast = tested on: HS 578T breast
NCI-H226 lung = tested on: NCI-H226 lung
CAKI-1 renal = tested on: CAKI-1 renal
LOX IMVI melanoma = tested on: LOX IMVI melanoma
OVCAR-4 ovarian = tested on: OVCAR-4 ovarian
UACC-62 melanoma = tested on: UACC-62 melanoma
BT-549 breast = tested on: BT-549 breast
PC-3 prostate = tested on: PC-3 prostate
MDA-MB-231 breast = tested on: MDA-MB-231 breast
U251 glioblastoma = tested on: U251 glioblastoma
HT29 colon = tested on: HT29 colon
NCI-H23 lung = tested on: NCI-H23 lung
MOLT-4 leukemia = tested on: MOLT-4 leukemia
SNB-75 CNS = tested on: SNB-75 CNS
SNB-19 CNS = tested on: SNB-19 CNS
HCC-2998 colon = tested on: HCC-2998 colon
RXF 393 renal = tested on: RXF 393 renal
HCT-116 colon = tested on: HCT-116 colon
IGROV1 ovarian = tested on: IGROV1 ovarian
A498 renal = tested on: A498 renal
COLO 205 colon = tested on: COLO 205 colon

SMILES: COc1cc2c(Nc3ccc(Br)cc3F)ncnc2cc1OCC1CCN(C)CC1
- GI50 (OVCAR-5 ovarian): 2190 nM
- TGI (OVCAR-5 ovarian): 11.5 µM
- GI50 (NCI-H522 lung): 616 nM
- TGI (NCI-H522 lung): 2530 nM
- GI50 (SF-539 CNS): 2640 nM
- TGI (SF-539 CNS): 8.64 µM
- GI50 (OVCAR-8 ovarian): 2540 nM
- TGI (OVCAR-8 ovarian): 7.23 µM
- GI50 (NCI/ADR-RES ovarian): 2240 nM
- TGI (NCI/ADR-RES ovarian): 6.43 µM
- GI50 (ACHN renal): 553 nM
- TGI (ACHN renal): 3.91 µM
- GI50 (SF-268 CNS): 2460 nM
- TGI (SF-268 CNS): 7.05 µM
- GI50 (A549 NSCLC): 2070 nM
- TGI (A549 NSCLC): 11.2 µM
- GI50 (HOP-62 NSCLC): 2770 nM
- TGI (HOP-62 NSCLC): 10.4 µM
- GI50 (MCF7 breast): 2780 nM
- TGI (MCF7 breast): 11.1 µM
- GI50 (HCT-15 colon): 1980 nM
- TGI (HCT-15 colon): 5.36 µM
- GI50 (EKVX NSCLC): 943 nM
- TGI (EKVX NSCLC): 8.63 µM
- GI50 (UACC-257 melanoma): 1900 nM
- TGI (UACC-257 melanoma): 3.32 µM
- GI50 (NCI-H460 NSCLC): 4.66 µM
- TGI (NCI-H460 NSCLC): 16 µM
- GI50 (SF-295 CNS): 66.6 µM
- TGI (SF-295 CNS): > 100 µM
- GI50 (TK-10 renal): 1980 nM
- TGI (TK-10 renal): 5.1 µM
- GI50 (KM12 colon): 5.9 µM
- TGI (KM12 colon): 17.4 µM
- GI50 (HL-60(TB) leukemia): 2090 nM
- TGI (HL-60(TB) leukemia): 3.53 µM
- GI50 (M14 melanoma): 1980 nM
- TGI (M14 melanoma): 3.42 µM
- GI50 (DU-145 prostate): 2220 nM
- TGI (DU-145 prostate): 12.4 µM
- GI50 (SN12C renal): 2330 nM
- TGI (SN12C renal): 16.3 µM
- GI50 (SK-MEL-28 melanoma): 1710 nM
- TGI (SK-MEL-28 melanoma): 3.11 µM
- GI50 (MDA-MB-468 breast): 551 nM
- TGI (MDA-MB-468 breast): 1920 nM
- GI50 (SK-OV-3 ovarian): 1930 nM
- TGI (SK-OV-3 ovarian): 6.31 µM
- GI50 (MALME-3M melanoma): 1770 nM
- TGI (MALME-3M melanoma): 3.16 µM
- GI50 (OVCAR-3 ovarian): 1050 nM
- TGI (OVCAR-3 ovarian): 4.52 µM
- GI50 (NCI-H322M lung): 298 nM
- TGI (NCI-H322M lung): 900 nM
- GI50 (RPMI-8226 leukemia): 2840 nM
- TGI (RPMI-8226 leukemia): 6.12 µM
- GI50 (786-0 renal): 1370 nM
- TGI (786-0 renal): 2870 nM
- GI50 (HOP-92 NSCLC): 1370 nM
- TGI (HOP-92 NSCLC): 2840 nM
- GI50 (SR leukemia): 3.54 µM
- TGI (SR leukemia): 5.01 µM
- GI50 (SK-MEL-5 melanoma): 1540 nM
- TGI (SK-MEL-5 melanoma): 3.02 µM
- GI50 (MDA-MB-435 melanoma): 2590 nM
- TGI (MDA-MB-435 melanoma): 4.42 µM
- GI50 (UO-31 renal): 1160 nM
- TGI (UO-31 renal): 2460 nM
- GI50 (T-47D breast): 1330 nM
- TGI (T-47D breast): 8.79 µM
- GI50 (HS 578T breast): 1520 nM
- TGI (HS 578T breast): 2920 nM
- GI50 (NCI-H226 lung): 1300 nM
- TGI (NCI-H226 lung): 5.47 µM
- GI50 (CAKI-1 renal): 1230 nM
- TGI (CAKI-1 renal): 2550 nM
- GI50 (LOX IMVI melanoma): 2040 nM
- TGI (LOX IMVI melanoma): 4.24 µM
- GI50 (OVCAR-4 ovarian): 2300 nM
- TGI (OVCAR-4 ovarian): 10.2 µM
- GI50 (UACC-62 melanoma): 1830 nM
- TGI (UACC-62 melanoma): 3.37 µM
- GI50 (BT-549 breast): 2240 nM
- TGI (BT-549 breast): 5.06 µM
- GI50 (PC-3 prostate): 3.46 µM
- TGI (PC-3 prostate): 18.4 µM
- GI50 (MDA-MB-231 breast): 1870 nM
- TGI (MDA-MB-231 breast): 4.3 µM
- GI50 (U251 glioblastoma): 4.46 µM
- TGI (U251 glioblastoma): 17.1 µM
- GI50 (HT29 colon): 1780 nM
- TGI (HT29 colon): 3.61 µM
- GI50 (NCI-H23 lung): 3.38 µM
- TGI (NCI-H23 lung): 15.5 µM
- GI50 (MOLT-4 leukemia): 1920 nM
- TGI (MOLT-4 leukemia): 5.65 µM
- GI50 (SNB-75 CNS): 1570 nM
- TGI (SNB-75 CNS): 3.61 µM
- GI50 (SNB-19 CNS): 10.6 µM
- TGI (SNB-19 CNS): > 100 µM
- GI50 (HCC-2998 colon): 2390 nM
- TGI (HCC-2998 colon): 5.59 µM
- GI50 (RXF 393 renal): 836 nM
- TGI (RXF 393 renal): 2480 nM
- GI50 (HCT-116 colon): 3.1 µM
- TGI (HCT-116 colon): 10.7 µM
- GI50 (IGROV1 ovarian): 262 nM
- TGI (IGROV1 ovarian): 1040 nM
- GI50 (A498 renal): 1440 nM
- TGI (A498 renal): 3.34 µM
- GI50 (COLO 205 colon): 2350 nM
- TGI (COLO 205 colon): 6.01 µM
